Experimental data taken from patent publication US20260317370A1, “METHOD OF DEPROTECTING AT LEAST ONE D-AMINO ACID AND/OR D-AMINO ACID DERIVATIVE PROTECTED FUNCTIONAL GROUP” (Martin-Luther-Universität Halle-Wittenberg, priority 2023, published 2026).
Where a name gives a salt, the structure may show the parent alone.

The compounds below were run against T1, D-stereospecific hydrolytic enzyme, SEQ ID No. 4 (Bacillus cereus, UniProt P94288) (assay: additive influence on activity of D-stereospecific hydrolytic enzyme). Details: role: inhibitor (additive); substrate Abz-AAfFAAK(DNP)-OH.
T1 construct: initiator Met form is 4A; E. coli, purified by ion exchange and gel filtration
T1 sequence (P94288 entry or part of it): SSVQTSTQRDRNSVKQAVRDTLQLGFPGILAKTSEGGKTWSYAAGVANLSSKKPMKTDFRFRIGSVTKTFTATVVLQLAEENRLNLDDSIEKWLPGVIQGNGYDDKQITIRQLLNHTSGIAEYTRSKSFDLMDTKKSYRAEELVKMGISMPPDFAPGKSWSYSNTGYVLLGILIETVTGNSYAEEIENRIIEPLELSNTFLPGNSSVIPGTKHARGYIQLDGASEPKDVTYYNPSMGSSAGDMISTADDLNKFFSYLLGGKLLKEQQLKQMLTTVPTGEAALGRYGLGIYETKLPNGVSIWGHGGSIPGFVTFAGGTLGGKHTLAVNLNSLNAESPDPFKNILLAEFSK
Format: biochemical
Protocol: (§1) In further experiments, the hydrolysis reaction using D-stereospecific hydrolytic enzymes with SEQ ID No. 4, No. 6, No. 7, No. 8, No. 9 was carried out with internally quenched fluorogenic substrates (IQFS) (Abz-AAX/xaaFAAK(DNP)-OH) (Abz=2-aminobenzoic acid, DNP=2,4-dinitrophenol). By cleavage of the IQFS, a fluorescence signal is released and can be monitored by continuous fluorescence measurement (0.1 M NaPi, pH 8.0, 1% DMSO (v/v), 5-1000 nM enzyme, excitation wavelength 320 nm emission wavelength 420 nm, reaction volume 100 μl, 96-well micro titer plate, time scale 2 h). The respective model reaction is shown below (Formula 5). In Formula 5 DHy represents the respective D-stereospecific hydrolytic enzyme.
(§2) In addition, experiments were performed to investigate the effect of adding different additives in different concentrations based on the reaction mixture on the activity of D-stereospecific hydrolytic enzymes. The concentration of the respective additive was varied between 0 to 2.5 M. As additives, urea, guanidinium hydrochloride, NaCl and ß-mercaptoethanol (ß-ME) were used. The additives were added to the reaction mixture including the D-stereospecific hydrolytic enzyme and the peptide Abz-AAfFAAK(DNP)-OH. As D-stereospecific hydrolytic enzymes the D-stereospecific hydrolytic enzymes with SEQ ID No. 4, No. 6, No. 7, No. 8 and No. 9 were used.
(§3) The relative activity, in this case, is calculated by dividing the activity when adding an additive with a different concentration by the maximum activity of the respective D-stereospecific enzyme.
(§4) In Table 11, the concentration of additive (M) based on the reaction mixture at which 50% (*) or 10% (**) of the relative specific activity of the respective enzyme is still present is indicated.
For `OCCS` [β-ME, ß-mercaptoethanol], the “concentration of additive at which 10% of the relative specific activity is still present” value was less than 0.25 M. For `NC(N)=O` [urea], the “concentration of additive at which 10% of the relative specific activity is still present” value was 1.25 M. With `N=C(N)N` [GdmCl, guanidinium hydrochloride] the “concentration of additive at which 10% of the relative specific activity is still present” value was 1.00 M.

What follows are compounds tested against T2, D-stereospecific hydrolytic enzyme, SEQ ID No. 8 (Bacillus thuringiensis, UniProt A0A1W6WYC6) in the same assay as above. Details: role: inhibitor (additive); substrate Abz-AAfFAAK(DNP)-OH.
T2 construct: E. coli, purified
T2 sequence (A0A1W6WYC6 40-389): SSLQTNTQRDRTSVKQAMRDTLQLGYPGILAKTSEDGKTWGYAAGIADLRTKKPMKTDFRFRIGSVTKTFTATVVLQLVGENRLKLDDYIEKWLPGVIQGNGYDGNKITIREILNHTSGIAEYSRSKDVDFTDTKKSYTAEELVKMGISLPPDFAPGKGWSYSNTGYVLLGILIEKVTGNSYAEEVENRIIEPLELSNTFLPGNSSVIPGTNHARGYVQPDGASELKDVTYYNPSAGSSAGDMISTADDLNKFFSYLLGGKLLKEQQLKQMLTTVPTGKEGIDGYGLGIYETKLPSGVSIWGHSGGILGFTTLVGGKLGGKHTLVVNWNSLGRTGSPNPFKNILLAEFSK
Format: biochemical
Protocol: as §1, §2, §3, §4
For `OCCS` [β-ME, ß-mercaptoethanol], the “concentration of additive at which 10% of the relative specific activity is still present” value was 0.50 M. For `NC(N)=O` [urea], the “concentration of additive at which 10% of the relative specific activity is still present” value was 2.00 M. `N=C(N)N` [GdmCl, guanidinium hydrochloride] was tested, and the “concentration of additive at which 10% of the relative specific activity is still present” value was 1.00 M.

These compounds were tested against T3, D-stereospecific hydrolytic enzyme, SEQ ID No. 6 (Bacillus thuringiensis, UniProt A0A1W6WPG2) in the same assay as above. Details: role: inhibitor (additive); substrate Abz-AAfFAAK(DNP)-OH.
T3 construct: E. coli, purified; crystallized, P21
T3 sequence (A0A1W6WPG2 40-385): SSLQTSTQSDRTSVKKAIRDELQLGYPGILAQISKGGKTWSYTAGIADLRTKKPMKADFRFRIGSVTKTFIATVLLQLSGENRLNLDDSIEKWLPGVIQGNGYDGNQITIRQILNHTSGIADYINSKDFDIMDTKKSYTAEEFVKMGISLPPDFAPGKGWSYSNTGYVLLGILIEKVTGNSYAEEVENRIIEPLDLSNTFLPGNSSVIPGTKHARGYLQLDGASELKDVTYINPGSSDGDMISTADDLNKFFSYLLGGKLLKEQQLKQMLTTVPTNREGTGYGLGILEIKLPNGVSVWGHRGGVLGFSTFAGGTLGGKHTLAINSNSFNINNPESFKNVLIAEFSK
Format: biochemical
Protocol: as §1, §2, §3, §4
For `OCCS` [β-ME, ß-mercaptoethanol], the “concentration of additive at which 10% of the relative specific activity is still present” value was 0.50 M. For `NC(N)=O` [urea], the “concentration of additive at which 10% of the relative specific activity is still present” value was 2.00 M. `N=C(N)N` [GdmCl, guanidinium hydrochloride] was tested, and the “concentration of additive at which 10% of the relative specific activity is still present” value was 0.50 M.

The compounds below were run against T4, D-stereospecific hydrolytic enzyme, SEQ ID No. 7 (Bacillus thuringiensis, UniProt A0A1W6WPK6) in the same assay as above. Details: role: inhibitor (additive); substrate Abz-AAfFAAK(DNP)-OH.
T4 construct: E. coli, purified
T4 sequence (A0A1W6WPK6 41-389): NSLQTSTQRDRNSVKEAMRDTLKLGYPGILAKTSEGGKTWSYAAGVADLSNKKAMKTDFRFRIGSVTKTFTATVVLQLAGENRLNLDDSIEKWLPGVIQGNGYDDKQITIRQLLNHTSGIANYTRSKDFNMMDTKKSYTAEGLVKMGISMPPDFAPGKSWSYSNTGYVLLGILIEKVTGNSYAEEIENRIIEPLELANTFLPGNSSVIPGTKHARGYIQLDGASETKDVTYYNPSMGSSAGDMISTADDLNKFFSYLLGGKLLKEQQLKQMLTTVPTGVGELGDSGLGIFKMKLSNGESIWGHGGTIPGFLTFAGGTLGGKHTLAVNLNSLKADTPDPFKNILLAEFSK
Format: biochemical
Protocol: as §1, §2, §3, §4
With `OCCS` [β-ME, ß-mercaptoethanol] the “concentration of additive at which 10% of the relative specific activity is still present” value was 0.50 M. In the case of `NC(N)=O` [urea], the “concentration of additive at which 10% of the relative specific activity is still present” value is reported as 1.50 M. For `N=C(N)N` [GdmCl, guanidinium hydrochloride], the “concentration of additive at which 10% of the relative specific activity is still present” value was 0.50 M.

These compounds were tested against T5, D-stereospecific hydrolytic enzyme, SEQ ID No. 9 (Bacillus thuringiensis, UniProt A0A1W6WP87) in the same assay as above. Details: role: inhibitor (additive); substrate Abz-AAfFAAK(DNP)-OH.
T5 construct: E. coli, purified
T5 sequence (A0A1W6WP87 38-388): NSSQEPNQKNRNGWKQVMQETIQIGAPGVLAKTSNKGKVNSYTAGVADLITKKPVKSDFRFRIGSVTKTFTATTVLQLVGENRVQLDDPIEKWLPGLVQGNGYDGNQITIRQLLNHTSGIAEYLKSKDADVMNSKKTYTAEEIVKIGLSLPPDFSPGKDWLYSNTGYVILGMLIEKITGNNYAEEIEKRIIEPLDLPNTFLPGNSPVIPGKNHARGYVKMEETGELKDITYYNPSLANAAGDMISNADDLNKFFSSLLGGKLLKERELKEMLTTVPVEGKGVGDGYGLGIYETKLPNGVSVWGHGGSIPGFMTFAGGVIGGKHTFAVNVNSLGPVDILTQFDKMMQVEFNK
Format: biochemical
Protocol: as §1, §2, §3, §4
With `OCCS` [β-ME, ß-mercaptoethanol] the “concentration of additive at which 10% of the relative specific activity is still present” value was 0.50 M. In the case of `NC(N)=O` [urea], the “concentration of additive at which 10% of the relative specific activity is still present” value is reported as 2.25 M. For `N=C(N)N` [GdmCl, guanidinium hydrochloride], the “concentration of additive at which 10% of the relative specific activity is still present” value was 1.25 M.
